The source of these data is ChEMBL document CHEMBL3046136, “Evaluation of antidepressant-like effect of 2-pyrazoline derivatives” (Med Chem Res, 2010).

Series [1] concerns Mus musculus. Briefly: Toxicity in Mus musculus albino (mouse) assessed as resting time at 100 mg/kg, ip. In kind it is organism-based. More on the design: dose 100 mg/kg, route intraperitoneal. As to conditions: in vivo.
Series [2] deals with Mus musculus. The series is described as follows: Antidepressant-like activity in Mus musculus albino (mouse) assessed as latency for first immobilization at 100 mg/kg, ip measured after 30 min by forced swim test (reference value: 68 +/- 13 sec). The following applies: route intraperitoneal. In kind it is functional.
Series [3] has as its system Mus musculus. The series is described as follows: Toxicity in Mus musculus albino (mouse) assessed as increase in total distance travelled at 100 mg/kg, ip. The arrangement: dose 100 mg/kg, route intraperitoneal. As to conditions: in vivo. The series is classed as organism-based.
Series [4] deals with Mus musculus. The series is described as follows: Antidepressant-like activity in Mus musculus albino (mouse) assessed as immobility time at 100 mg/kg, ip measured after 30 min by forced swim test (reference value: 167 +/- 17 sec). In kind it is functional. As to conditions: route intraperitoneal.
For series [5], the system named is Mus musculus. The series is described as follows: Toxicity in Mus musculus albino (mouse) assessed as increase in horizontal activity at 100 mg/kg, ip. The series is classed as organism-based. More on the design: dose 100 mg/kg, route intraperitoneal. The following applies: in vivo.
Series [6] has as its system Mus musculus. The series is described as follows: Toxicity in Mus musculus albino (mouse) assessed as decrease in horizontal activity at 100 mg/kg, ip. In kind it is organism-based. More on the design: dose 100 mg/kg, route intraperitoneal. The following applies: in vivo.
Series [7] concerns Mus musculus. The series is described as follows: Toxicity in Mus musculus albino (mouse) assessed as decrease in total distance travelled at 100 mg/kg, ip. In kind it is organism-based. The arrangement: dose 100 mg/kg, route intraperitoneal. The following applies: in vivo.
For series [8], the system named is Mus musculus. Briefly: Toxicity in Mus musculus albino (mouse) assessed as resting time at 10 mg/kg, ip. More on the design: dose 10 mg/kg, route intraperitoneal. The series is classed as organism-based. As to conditions: in vivo.
The subject of series [9] is Mus musculus. Briefly: Toxicity in Mus musculus albino (mouse) assessed as increase in horizontal activity at 10 mg/kg, ip. The following applies: in vivo. The arrangement: dose 10 mg/kg, route intraperitoneal. The series is classed as organism-based.
In series [10] the test system is Mus musculus. Briefly: Toxicity in Mus musculus albino (mouse) assessed as increase in total distance travelled at 10 mg/kg, ip. The series is classed as organism-based. The arrangement: dose 10 mg/kg, route intraperitoneal. The following applies: in vivo.

Molecules are shown by their SMILES.

For the compound `O=C(CSC(=S)N1CCOCC1)N1N=C(c2cccs2)CC1c1ccccc1` (stereo not drawn), the Activity with Mus musculus [1] is recorded as 77%; with Mus musculus [3], “Toxic”; in the series on Mus musculus [5] it was “Toxic”. The values for the Time in the series on Mus musculus [2] and in the series with Mus musculus [4] were 73 s and 148 s, respectively.

For `O=C(CSC(=S)N1CCSCC1)N1N=C(c2cccs2)CC1c1ccccc1` (stereo not drawn), the Activity with Mus musculus [1] is listed as 73%; with Mus musculus [3], “Toxic”; in the series on Mus musculus [5], “Toxic”. The Time in the series with Mus musculus [2] is reported as 72 s; in the series on Mus musculus [4], 84 s.

Consider `Cc1ccc(C2CC(c3cccs3)=NN2C(=O)CSC(=S)N2CCOCC2)cc1` (stereo not drawn), for which the Activity result is recorded as “Toxic” with Mus musculus [6], 89% with Mus musculus [1] and “Toxic” in the series with Mus musculus [7]. For the same compound, the Time with Mus musculus [2] was 99 s; in the series on Mus musculus [4], 129 s.

As to `Cc1ccc(C2CC(c3cccs3)=NN2C(=O)CSC(=S)N2CCSCC2)cc1` (stereo not drawn), the Activity with Mus musculus [1] came to 81%. The results for the Time in the series with Mus musculus [2] and in the series on Mus musculus [4] were 60 s and 113 s, respectively.

On to `COc1ccc(C2CC(c3cccs3)=NN2C(=O)CSC(=S)N2CCOCC2)cc1` (stereo not drawn), for which, in the series with Mus musculus [1], the Activity stood at 84%. In addition, the Time in the series with Mus musculus [2] is on record as 94 s; in the series on Mus musculus [4], 139 s.

Regarding `COc1ccc(C2CC(c3cccs3)=NN2C(=O)CSC(=S)N2CCSCC2)cc1` (stereo not drawn), the Activity with Mus musculus [1] is 72%; in the series with Mus musculus [3], “Toxic”; in the series on Mus musculus [5], “Toxic”. Moreover, the Time is recorded as 80 s in the series on Mus musculus [2] and 134 s in the series with Mus musculus [4].

For `O=C(CSC(=S)N1CCOCC1)N1N=C(c2cccs2)CC1c1ccc(Cl)cc1` (stereo not drawn), in the series on Mus musculus [1], the Activity stood at 80%. Further, the Time is on record as 36 s in the series on Mus musculus [2] and 112 s in the series with Mus musculus [4].

In the case of `O=C(CSC(=S)N1CCSCC1)N1N=C(c2cccs2)CC1c1ccc(Cl)cc1` (stereo not drawn), the Activity result in the series with Mus musculus [6] was “Toxic”; in the series with Mus musculus [1] it was 80%; in the series with Mus musculus [7] it was “Toxic”. In addition, the figures for the Time in the series with Mus musculus [2] and in the series on Mus musculus [4] were 77 s and 136 s, respectively.

On to `N[C@@H]1C[C@H]1c1ccccc1.N[C@H]1C[C@@H]1c1ccccc1` (racemic) [TRANYLCYPROMINE], for which the Activity in the series with Mus musculus [8] was 89%.

As to `CN(C)CCCN1c2ccccc2CCc2ccc(Cl)cc21` [CLOMIPRAMINE], the Activity is 73% in the series with Mus musculus [8], “Toxic” with Mus musculus [9] and “Toxic” with Mus musculus [10].
